The record followed here is patent US20120094964A1, “SULFAMOYL BENZOIC ACID DERIVATIVES AS TRPM8 ANTAGONISTS” (priority 2009, published 2012).

Molecules are shown by their SMILES.

The target in the test is T1, human TRPM8 (Homo sapiens, UniProt Q7Z2W7).
T1 construct: expressed in transfected cells
As to the kind of experiment: In Vitro human TRPM8 Functional Assay (intracellular Ca2+, Fluo4, FDSS, menthol activation). To be noted: HEK293 cells stably expressing human TRPM8; activation with L-(-)-Menthol; 11-point dose-response. Type of test: cell-based. The protocol: In Vitro human TRPM8 Functional Assay
The functional activity of compounds was determined by measuring changes in intracellular calcium concentration using a Ca^2+-sensitive fluorescent dye, Fluo4 (Molecular Probes). The changes in fluorescent signal were monitored by the cell imaging technology by Hamamatsu Photonics's Functional Drug Screening System (FDSS).
HEK293 cells stably expressing human TRPM8 were grown in T175 flasks, in a 5% CO2 humidified incubator to about 80% confluence. Media composition consisted of Dulbecco's Modified Eagle Medium (high glucose), 10% fetal calf serum (FCS), 100 units/ml Penicillin, 100 microg/ml Streptomycin and 600 microg/ml Geneticine.
1. Plate-out HEK293-TRPM8 cells (40 microL medium containing 30,000 cells per well) into poly-D-lysine coated 384-well plates (BD FALCON) at 24 hours prior to assay.
1. […] 2. […] 3. Place the plate at room temperature in dark for 1 hour. 4. […] 5. Add 20 microL of compound solutions into each well and leave the plate for 5 minutes under the dark at room temperature. 6. Measure activity by FDSS as follows: • Set the assay plate on the stacker of FDSS • Start the detection of fluorescence intensity • After 30 sec, add 20 microL of 90 microM L-(−)-Menthol
IC50 values for compounds of the present invention were determined from 11-point dose-response studies. Curves were generated using the average of duplicate wells for each data point. Finally, the IC50 values are calculated with the best-fit dose curve determined by XLfit (ID Business Solutions Ltd.).

T1 sequence (Q7Z2W7 whole entry): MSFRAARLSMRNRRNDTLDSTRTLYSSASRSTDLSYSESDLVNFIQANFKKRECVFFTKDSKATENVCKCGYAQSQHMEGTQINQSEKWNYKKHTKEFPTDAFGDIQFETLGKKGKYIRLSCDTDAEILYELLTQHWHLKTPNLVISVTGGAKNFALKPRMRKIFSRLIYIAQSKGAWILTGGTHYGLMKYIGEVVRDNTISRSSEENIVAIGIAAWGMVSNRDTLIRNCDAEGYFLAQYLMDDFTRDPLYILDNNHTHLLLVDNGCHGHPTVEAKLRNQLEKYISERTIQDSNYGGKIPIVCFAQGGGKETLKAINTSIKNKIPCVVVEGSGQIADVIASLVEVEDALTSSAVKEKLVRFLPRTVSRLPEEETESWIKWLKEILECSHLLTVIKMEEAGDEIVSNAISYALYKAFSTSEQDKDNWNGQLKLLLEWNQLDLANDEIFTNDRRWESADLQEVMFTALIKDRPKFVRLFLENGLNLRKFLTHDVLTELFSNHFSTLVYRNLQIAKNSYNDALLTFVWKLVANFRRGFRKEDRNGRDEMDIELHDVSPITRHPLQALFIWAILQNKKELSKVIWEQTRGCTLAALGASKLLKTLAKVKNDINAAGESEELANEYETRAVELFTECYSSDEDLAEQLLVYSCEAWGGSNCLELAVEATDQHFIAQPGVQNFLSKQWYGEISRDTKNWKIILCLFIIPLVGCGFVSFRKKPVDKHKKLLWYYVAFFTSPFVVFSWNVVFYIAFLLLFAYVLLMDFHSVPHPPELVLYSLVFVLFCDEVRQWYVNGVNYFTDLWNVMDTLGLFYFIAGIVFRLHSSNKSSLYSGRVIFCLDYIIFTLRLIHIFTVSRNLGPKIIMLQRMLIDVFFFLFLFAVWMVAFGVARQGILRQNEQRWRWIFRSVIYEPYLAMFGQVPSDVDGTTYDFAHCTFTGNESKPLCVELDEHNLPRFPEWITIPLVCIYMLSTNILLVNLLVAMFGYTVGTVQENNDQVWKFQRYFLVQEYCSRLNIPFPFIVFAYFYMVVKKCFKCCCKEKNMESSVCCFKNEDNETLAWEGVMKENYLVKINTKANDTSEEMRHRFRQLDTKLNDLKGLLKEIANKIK

For orientation: IC50 means the concentration at which inhibition is half-maximal. A high value points to weaker potency. Regarding `O=C(O)c1ccc(S(=O)(=O)N(Cc2cccc(Cl)c2)c2ncc(C(F)(F)F)cc2Cl)cc1` [Example 48, 4-(N-(3-Chloro-5-(trifluoromethyl)pyridin-2-yl)-N-(3-chlorobenzyl)sulfamoyl)benzoic acid], the IC50 was < 1 µM.
On to `O=C(O)c1ccc(S(=O)(=O)N(Cc2ccccc2OC(F)(F)F)c2ncc(C(F)(F)F)cc2Cl)cc1` [Example 51, 4-(N-(3-Chloro-5-(trifluoromethyl)pyridin-2-yl)-N-(2-(trifluoromethoxy)benzyl)sulfamoyl)benzoic acid], for which the IC50 was < 1 µM.
For the molecule `O=C(O)c1ccc(S(=O)(=O)N(Cc2ccc(C(F)(F)F)cc2)c2ncc(Cl)cc2Cl)cc1` [Example 54, 4-(N-(3,5-Dichloropyridin-2-yl)-N-(4-(trifluoromethyl)benzyl)sulfamoyl)benzoic acid], the IC50 was < 1 µM.
Turning to `Cc1cc(Cl)cnc1N(Cc1ccc(C(F)(F)F)cc1)S(=O)(=O)c1ccc(C(=O)O)cc1` [Example 55, 4-(N-(5-Chloro-3-methylpyridin-2-yl)-N-(4-(trifluoromethyl)benzyl)sulfamoyl)benzoic acid], the IC50 was < 1 µM.
As for `O=C(O)c1ccc(S(=O)(=O)N(Cc2ccccc2)c2ccc(C(F)(F)F)cc2Cl)cc1` [Example 56, 4-(N-Benzyl-N-(2-chloro-4-(trifluoromethyl)phenyl)sulfamoyl)benzoic acid], the IC50 was < 1 µM.
The same measure for `O=C(O)c1ccc(S(=O)(=O)N(CCN2CCOCC2)c2ncc(C(F)(F)F)cc2Cl)cc1` [Example 57, 4-(N-(3-Chloro-5-(trifluoromethyl)pyridin-2-yl)-N-(2-morpholinoethyl)sulfamoyl)benzoic acid]: 1 to 10 µM; for `O=C(O)c1ccc(S(=O)(=O)N(CCCc2ccccc2)c2ncc(C(F)(F)F)cc2Cl)cc1` [Example 59, 4-(N-(3-Chloro-5-(trifluoromethyl)pyridin-2-yl)-N-(3-phenylpropyl)sulfamoyl)benzoic acid]: < 1 µM.
Consider `O=C(O)c1ccc(S(=O)(=O)N(Cc2ccc(F)cc2)c2ncc(Cl)cc2Cl)cc1` [Example 61, 4-(N-(3,5-Dichloropyridin-2-yl)-N-(4-fluorobenzyl)sulfamoyl)benzoic acid], for which the IC50 is < 1 µM.
The same measure for `O=C(O)c1ccc(S(=O)(=O)N(Cc2ccc(Cl)c(F)c2)c2ncc(Cl)cc2Cl)cc1` [Example 62, 4-(N-(4-Chloro-3-fluorobenzyl)-N-(3,5-dichloropyridin-2-yl)sulfamoyl)benzoic acid]: < 1 µM; for `O=C(O)c1ccc(S(=O)(=O)N(Cc2ccc(OC(F)(F)F)cc2)c2ncc(Cl)cc2Cl)cc1` [Example 63, 4-(N-(3,5-Dichloropyridin-2-yl)-N-(4-(trifluoromethoxy)benzyl)sulfamoyl)benzoic acid]: < 1 µM; for `O=C(O)c1ccc(S(=O)(=O)N(Cc2ccccc2C(F)(F)F)c2ncc(Cl)cc2Cl)cc1` [Example 64, 4-(N-(3,5-Dichloropyridin-2-yl)-N-(2-(trifluoromethyl)benzyl)sulfamoyl)benzoic acid]: < 1 µM.
The same measure for `O=C(O)c1ccc(S(=O)(=O)N(Cc2ccc(Cl)c(F)c2)c2ncc(C(F)(F)F)cc2Cl)cc1` [Example 65, 4-(N-(4-Chloro-3-fluorobenzyl)-N-(3-chloro-5-(trifluoromethyl)pyridin-2-yl)sulfamoyl)benzoic acid]: < 1 µM; for `O=C(O)c1ccc(S(=O)(=O)N(Cc2ccc(Cl)c(C(F)(F)F)c2)c2ncc(Cl)cc2Cl)cc1` [Example 66, 4-(N-(4-Chloro-3-(trifluoromethyl)benzyl)-N-(3,5-dichloropyridin-2-yl)sulfamoyl)benzoic acid]: < 1 µM; for `Cc1ccc(CN(c2ncc(Cl)cc2Cl)S(=O)(=O)c2ccc(C(=O)O)cc2)cc1F` [Example 67, 4-(N-(3,5-Dichloropyridin-2-yl)-N-(3-fluoro-4-methylbenzyl)sulfamoyl)benzoic acid]: < 1 µM.
The same measure for `Cc1ccc(CN(c2ncc(Cl)cc2Cl)S(=O)(=O)c2ccc(C(=O)O)cc2)cc1C(F)(F)F` [Example 68, 4-(N-(3,5-dichloropyridin-2-yl)-N-(4-methyl-3-(trifluoromethyl)benzyl)sulfamoyl)benzoic acid]: < 1 µM; for `O=C(O)c1ccc(S(=O)(=O)N(Cc2ccc(F)c(Cl)c2)c2ncc(Cl)cc2Cl)cc1` [Example 69, 4-(N-(3-Chloro-4-fluorobenzyl)-N-(3,5-dichloropyridin-2-yl)sulfamoyl)benzoic acid]: < 1 µM.
As for `CC1(c2ccc(CN(c3ncc(Cl)cc3Cl)S(=O)(=O)c3ccc(C(=O)O)cc3)cc2)CC1` [Example 70, 4-(N-(3,5-Dichloropyridin-2-yl)-N-(4-(1-methylcyclopropyl)benzyl)sulfamoyl)benzoic acid], the IC50 is < 1 µM.
Then `O=C(O)c1ccc(S(=O)(=O)N(Cc2ccc(F)c(Cl)c2)c2ncc(C(F)(F)F)cc2Cl)cc1` [Example 71, 4-(N-(3-Chloro-4-fluorobenzyl)-N-(3-chloro-5-(trifluoromethyl)pyridin-2-yl)sulfamoyl)benzoic acid], with < 1 µM; and `O=C(O)c1ccc(S(=O)(=O)N(Cc2ccc(Cl)cc2C(F)(F)F)c2ncc(Cl)cc2Cl)cc1` [Example 72, 4-(N-(4-Chloro-2-(trifluoromethyl)benzyl)-N-(3,5-dichloropyridin-2-yl)sulfamoyl)benzoic acid], with < 1 µM; and `O=C(O)c1ccc(S(=O)(=O)N(CCOc2ccc(F)cc2)c2ncc(Cl)cc2Cl)cc1` [Example 73, 4-(N-(3,5-Dichloropyridin-2-yl)-N-(2-(4-fluorophenoxy)ethyl)sulfamoyl)benzoic acid], with 10 to 30 µM.
The same measure for `O=C(O)c1ccc(S(=O)(=O)N(Cc2ccc(N3CCCC3=O)cc2)c2ncc(Cl)cc2Cl)cc1` [Example 74, 4-(N-(3,5-Dichloropyridin-2-yl)-N-(4-(2-oxopyrrolidin-1-yl)benzyl)sulfamoyl)benzoic acid]: 1 to 10 µM.
The same measure for `Cc1cc(Cl)cnc1N(Cc1ccc(Cl)cc1C(F)(F)F)S(=O)(=O)c1ccc(C(=O)O)cc1` [Example 75, 4-(N-(4-Chloro-2-(trifluoromethyl)benzyl)-N-(5-chloro-3-methylpyridin-2-yl)sulfamoyl)benzoic acid]: < 1 µM.
Turning to `Cc1cc(Cl)cnc1N(Cc1ccc(F)c(C(F)(F)F)c1)S(=O)(=O)c1ccc(C(=O)O)cc1` [Example 76, 4-(N-(5-Chloro-3-methylpyridin-2-yl)-N-(4-fluoro-3-(trifluoromethyl)benzyl)sulfamoyl)benzoic acid], the IC50 was < 1 µM.
As for `Cc1cc(Cl)cnc1N(Cc1ccc(F)c(Cl)c1)S(=O)(=O)c1ccc(C(=O)O)cc1` [Example 77, 4-(N-(5-Chloro-3-methylpyridin-2-yl)-N-(3-chloro-4-fluorobenzyl)sulfamoyl)benzoic acid], the IC50 was < 1 µM.
For the molecule `Cc1cc(Cl)cnc1N(Cc1ccc(OC(F)(F)F)cc1)S(=O)(=O)c1ccc(C(=O)O)cc1` [Example 78, 4-(N-(5-Chloro-3-methylpyridin-2-yl)-N-(4-(trifluoromethoxy)benzyl)sulfamoyl)benzoic acid], the IC50 is < 1 µM.
Then `Cc1cc(Cl)cnc1N(Cc1ccc(Cl)c(C(F)(F)F)c1)S(=O)(=O)c1ccc(C(=O)O)cc1` [Example 79, 4-(N-(4-Chloro-3-(trifluoromethyl)benzyl)-N-(5-chloro-3-methylpyridin-2-yl)sulfamoyl)benzoic acid], with < 1 µM.
As for `Cc1cc(Cl)cnc1N(Cc1ccc(N2CCCC2=O)cc1)S(=O)(=O)c1ccc(C(=O)O)cc1` [Example 80, 4-(N-(5-Chloro-3-methylpyridin-2-yl)-N-(4-(2-oxopyrrolidin-1-yl)benzyl)sulfamoyl)benzoic acid], the IC50 fell in the range of 1 to 10 µM.
The same measure for `O=C(O)c1ccc(S(=O)(=O)N(CCN2CCOCC2)c2ccc(C(F)(F)F)cc2Cl)cc1` [Example 81, 4-(N-(2-Chloro-4-(trifluoromethyl)phenyl)-N-(2-morpholinoethyl)sulfamoyl)benzoic acid]: 1 to 10 µM; for `O=C(O)c1ccc(S(=O)(=O)N(Cc2ccccn2)c2ccc(C(F)(F)F)cc2Cl)cc1` [Example 82, 4-(N-(2-Chloro-4-(trifluoromethyl)phenyl)-N-(pyridin-2-ylmethyl)sulfamoyl)benzoic acid]: 1 to 10 µM; for `O=C(O)c1ccc(S(=O)(=O)N(CCN2CCCCC2)c2ccc(C(F)(F)F)cc2Cl)cc1` [Example 83, 4-(N-(2-Chloro-4-(trifluoromethyl)phenyl)-N-(2-(piperidin-1-yl)ethyl)sulfamoyl)benzoic acid]: 1 to 10 µM.
Molecule `COc1cccc(N(CC(=O)N2CCN(Cc3ccccc3)CC2)S(=O)(=O)c2ccccc2)c1` [Example 84, N-(2-(4-Benzylpiperazin-1-yl)-2-oxoethyl)-N-(3-methoxyphenyl)benzene-sulfonamide] gave an IC50 of 1 to 10 µM.
In turn, `COc1ccc(OC)c(C(C)N(c2ccc(C)cc2)S(=O)(=O)c2ccc(C)cc2)c1` (centres unmarked) [Example 85, N-(1-(2,5-Dimethoxyphenyl)ethyl)-4-methyl-N-p-tolylbenzenesulfonamide] had an IC50 of 1 to 10 µM.
